According to US20040192554A1, “Technique for effectively treating an agricultural product with a 1-substituted-cyclopropene” (priority 2003, published 2004):

How the values were obtained:
Assay type in all cases: in vivo
[1] = tested on: Japanese pear (variety "Hosui") fruit; assay: Quality deterioration of Japanese pear (Hosui) fruit after storage, Example 4; details: 1 ppm, after storage 25 degrees C 2 weeks
Method: Using a Japanese pear (variety “Hosui”) fruit (6 fruits were used per group) as an agricultural product, the following experiment was performed.
(§1) 1) A fruit and 1-methylcyclopropene (concentration 1 ppm in a chamber) were placed into a sealed chamber, and contact-treated for 16 hours under a normal pressure.
(§2) 2) A fruit was placed into a sealed chamber, and a pressure in the chamber was reduced to 25.0 kPa. Subsequently, 1-methylcyclopropene was placed therein to the concentration in the chamber of 1 ppm, and contact-treated for 1 minute under the reduced pressure (25.0 kPa).
(§3) The fruit which had been subjected to treatment of the above-mentioned 1) or 2) was stored at 25 degrees C for 2 weeks, and hardness of flesh and pH of a fruit juice which is an index for the content of an acid were measured. Contact treatment of the above-mentioned 1) or 2) was performed on a day of harvesting a fruit. In addition, also regarding a fruit undergoing no treatment of 1) or 2) (non-treatment), similar storage was performed, and the above-mentioned index was measured. Further, regarding non-treated fruit, the above-mentioned index before storage was also measured. Different alpha characters in Table 4 indicate that a significant difference was recognized at a risk rate of 5% (multiple range test of Newman-Keuls).

[2] = tested on: apple (variety "Sansa") fruit; assay: Quality deterioration of apple (Sansa) fruit after storage, Example 5; details: 1 ppm, after storage 25 degrees C 2 weeks
Method: Using an apple (variety “Sansa”) fruit (6 fruits were used per group) as an agricultural product, the following experiment was performed.
1) A fruit and 1-methylcyclopropene (concentration 1 ppm in a chamber) were placed into a sealed chamber, and contact-treated for 12 hours under a normal pressure.
as §2
as §3, with “of flesh,” for “of flesh and”, “an acid, and the ethylene concentration in a fruit core” for “an acid”, “on the following” for “on a”

[3] = tested on: apple (variety "Orin") fruit; assay: Quality deterioration of apple (Orin) fruit after storage, Example 6; details: 1 ppm, after storage 25 degrees C 3 weeks
Method: Using an apple (variety “Orin”) fruit (6 fruits were used per group) as an agricultural product, the following experiment was performed.
as §1
2) A fruit was placed into a sealed chamber, and a pressure in the chamber was reduced to 25.0 kPa. Subsequently, 1-methylcyclopropene was placed therein to the concentration in the chamber of 1 ppm, and contact-treated for 1 hour under the reduced pressure (25.0 kPa).
3) A fruit was placed into a sealed chamber. Subsequently, a pressure in the chamber was reduced to 25.0 kPa, and the fruit was kept in the chamber for 1 hour under the reduced pressure (25.0 kPa).
The fruit which had been subjected to treatment of the above-mentioned 1), 2) or 3) was stored at 25 degrees C for 3 weeks, and hardness of flesh and mealy of flesh were measured. In addition, treatments of the above-mentioned 1), 2) and 3) were performed regarding fruits which had been stored for about 1 month after harvesting of fruit. In addition, also regarding a fruit undergoing no treatment of 1), 2) or 3) (non-treatment), similar storage was performed, and the above-mentioned index was measured. Further, regarding non-treated fruit, the above-mentioned index before storage was also measured. Different alpha characters in Table 6 indicate that a significant difference was recognized at a risk rate of 5% (multiple range test of Newman-Keuls).

[4] = tested on: peach (variety "Yuzora") fruit; assay: Quality deterioration of peach (Yuzora) fruit after storage, Example 7; details: 1 ppm, after storage 25 degrees C 9 days
Method: Using a peach (variety “Yuzora”) fruit (6 fruits were used per group) as an agricultural product, the following experiment was performed.
1) A fruit and 1-methylcyclopropene (concentration 1 ppm in a chamber) were placed into a sealed chamber, and contact-treated for 24 hours under a normal pressure.
as §2
The fruit which had been subjected to treatment of the above-mentioned 1) or 2) was stored at 25 degrees C for 9 days, and hardness of flesh and was measured. In addition, contact treatment of the above-mentioned 1) or 2) was performed on the next day from harvesting of fruit. In addition, also regarding a fruit undergoing no treatment of 1) or 2) (non-treatment), similar storage was performed, and the above-mentioned index was measured. Further, regarding non-treated fruit, the above-mentioned index before storage was also measured.

[5] = tested on: peach (variety "Akatsuki") fruit; assay: Quality deterioration of peach (Akatsuki) fruit after storage, Example 8; details: 1 ppm, after storage 25 degrees C 5 days, treated on day of harvest
Method: Using a peach (variety “Akatsuki”) fruit (6 fruits were used per group) as an agricultural product, the following experiment was performed.
1) A fruit and 1-methylcyclopropene (concentration in a chamber 1 ppm) were placed into a sealed chamber, and contact-treated for 12 hours under a normal pressure.
as §2, with “kPa). Then, the pressure was returned to a normal pressure, and contact treatment was carried out for 12 hours while the concentration of 1-methylcyclopropene in the chamber was maintained at 1 ppm.” for “kPa).”
The fruit which had been subjected to treatment of the above-mentioned 1) or 2) was stored at 25 degrees C for 5 days, and hardness of flesh was measured. In addition, contact treatment of the above-mentioned 1) or 2) was performed on a day for harvesting of a fruit. In addition, also regarding a fruit undergoing no treatment of 1) or 2) (non-treatment), similar storage was performed, and the above-mentioned index was measured. Further, regarding a non-treated fruit, the above-mentioned index before storage was also measured. […]

[6] = Reduced pressure (25.0 kPa) 1 minute
[7] = Reduced pressure (25.0 kPa) 1 hour

CC1=CC1 [1-MCP, 1-methylcyclopropene]
Hardness of flesh ([1]; Normal pressure 16 hours): 18.72 N | pH of fruit juice ([1]; Normal pressure 16 hours): 4.37a | Hardness of flesh [1, 6]: 17.25 N | pH of fruit juice [1, 6]: 4.43a | Ethylene concentration in fruit core ([2]; Normal pressure 12 hours): 1.86a μL/L | Hardness of flesh ([2]; Normal pressure 12 hours): 61.05b N | pH of fruit juice ([2]; Normal pressure 12 hours): 3.38a | Ethylene concentration in fruit core [2, 6]: 0.97a μL/L | Hardness of flesh [2, 6]: 63.21b N | pH of fruit juice [2, 6]: 3.40a | Hardness of flesh ([3]; Normal pressure 16 hours): 42.06ab N | Mealy of flesh ([3]; Normal pressure 16 hours): Slight | Hardness of flesh [3, 7]: 44.02b N | Mealy of flesh [3, 7]: Slight | Hardness of flesh ([4]; Normal pressure 24 hours): 4.38 N | Hardness of flesh [4, 6]: 4.24 N | Hardness of flesh ([5]; Normal pressure 12 hours after reduced pressure (25.0 kPa) 1 minute): 6.18b N | Hardness of flesh ([5]; Normal pressure 12 hours): 2.84a N
